{"source": "patent US20240390371A1", "about": "“HETEROARYL AND HETEROCYCLIC COMPOUNDS FOR TREATING ACUTE INFLAMMATION” (TES Pharma S.r.l., priority 2023, published 2024)", "key": {"[1]": {"tested_on": "Kupffer cells", "assay": "Gene expression in Kupffer cells after LPS-induced inflammation", "type": "cell-based, mouse", "conditions": "compound 10 μM", "description": "[…] stimulated with LPS overnight […] (1 mg/mL stock solution in H2O, dispensed at 50 ng/mL in the well) final concentration. Cells treated with DMSO were used as control at the final concentration of 0.5% in medium. All the wells were normalized with DMSO at 0.5% final concentration. The supernatant was collected to measure cytokine secretion using a Bio-Plex Pro mouse cytokine 23-plex assay system (cat #M60009RDPD) using a Bio-Plex Instrument. The cells were washed once with PBS, and then lysed to extract total RNA for performing RT-PCR to evaluate ACMSD modulation of IL-10, SIRT1, and STAT3 gene expression.\nBriefly, total RNA was extracted from the cells using the manufacturer's protocol for Qiagen RNeasy Plus Mini Kit (cat. 74134). The total RNA concentration was quantified using an Implen Instrument, and the purity was evaluated by measuring the ratio of A260/A280.\nTotal RNA (1 μg) was reverse transcribed using the manufacturer's protocol for SuperScript IV VILO Master Mix (ThermoFisher cat. #. 11756500). Real-time PCR was then performed in CFX 96 Real Time System (Bio-Rad) as follows: denaturation at 95° C. for 2 minutes, followed by 40 cycles at 95° C. for 10 s, and hybridization at 60° C. for 20 s. QPCR was performed using the 2× QuantiNova SYBR Green PCR Master Mix (Qiagen). Mouse β2 microglobulin (m β2M) was used as a reference gene.\nFollowing inflammation induced by LPS (Kupffer cells treated with LPS 50 ng/mL […] incubation time) ACMSD inhibition, with compound I-34, reverses the changes in the expression of inflammatory modulators. Expression of pro-inflammatory genes is reduced (TNF-α, IL-6, and iNOS) and that of anti-inflammatory genes is increased (Arg-1, IL-10, and MRC2) by ACMSD inhibition."}, "[2]": {"tested_on": "HK-2 cells", "assay": "Gene expression in HK-2 cells after LPS stimulus", "type": "cell-based", "description": "((N=3) One way Anova: Dunnett's test: **p<0.01 vs pathological control.)\nACMSD inhibition, with compound I-34, decreased inflammatory gene expression (IL-6 and TNF-α) in HK-2 cells following an 18 h stimulus with 30 μg/ml of LPS."}, "[3]": {"tested_on": "Kupffer cells", "assay": "Cytokine secretion in Kupffer cells exposed to LPS", "type": "cell-based, mouse", "conditions": "LPS 24 h, compound 1 μM", "excerpt": "[…] Cells treated with DMSO were used as control at the final concentration of 0.5% in medium. All the wells were normalized with DMSO at 0.5% final concentration. The supernatant was collected to measure cytokine secretion using a Bio-Plex Pro mouse cytokine 23-plex assay system (cat #M60009RDPD) using a Bio-Plex Instrument. The cells were washed once with PBS, and then lysed to extract total RNA for performing RT-PCR to evaluate ACMSD modulation of IL-10, SIRT1, and STAT3 gene expression.\nAll cytokine secretion values were normalized to the luminescent signal relative to the measuring of the cellular ATP (CellTiter-Glo cat #G7571)).\n(§1) (One way Anova: Dunnett's test: **p<0.01, ***p<0.001; vs pathological control.)"}, "[4]": {"tested_on": "HK-2 cells", "assay": "Fibrotic gene expression in HK-2 cells after TGFβ insult", "type": "cell-based", "conditions": "pre-treatment, TGFβ insult at 10 ng/mL", "excerpt": "(§2) ((N=3) One way Anova: Dunnett's test: **p<0.01, ***p<0.001; vs pathological control.)"}, "[5]": {"tested_on": "mouse primary hepatocytes and murine stellate cells", "assay": "Gene expression in co-cultured mouse primary hepatocytes and murine stellate cells exposed to free fatty acids", "type": "cell-based", "conditions": "co-culture exposed to free fatty acids (MIX)", "excerpt": "Mouse primary hepatocytes and murine stellate cells were co-cultured with FFA to induce fibrosis as observed in NASH patients.\nas §1"}, "[6]": {"tested_on": "3D human liver microtissues", "assay": "Cytokine expression and secretion in 3D human liver microtissues (organoids)", "type": "cell-based", "conditions": "free fatty acids mix and LPS 10 μg/mL, compound 10 and 50 μM, dose-response manner", "description": "3D InSight™ Human Liver Microtissues (organoids) composed of multi-donor primary human hepatocytes in co-culture with Non-Parenchymal Cells (NPC), containing primary human Kupffer cells and primary Liver Endothelial Cells (LEC) were provided by Insphero, Switzerland. These human liver organoids to evaluate the anti-inflammatory effect of ACMSD inhibition.\nThe organoids were treated with free fatty acids (palmitic acid and oleic acid according to manufacturer's instructions) and lipopolisaccaride (LPS) in a diabetic medium (Insphero) at the concentration of 10 μg/mL to induce lipid accumulation in hepatocytes and pro-inflammatory cytokine secretion including; TNF-α, IL-6, IL-8, MCP-1, and MIP1α. Vehicle control solution was prepared as negative control. DMSO was maintained constant concentration of 0.1% total solution.\nTwo concentrations of compound I-34 (10 μM and 50 μM) were used and added together with the NASH stimuli mix. Cytokine secretion was measured in cell medium at day 4 following treatment using the Bio-Plex Pro Human Cytokine Screening Panel (Bio-Rad) according to manufacturer's instructions.\n3D human liver microtissues were treated with vehicle (DMSO), a mix of free fatty acids and LPS (10 μg/mL) and mix together with two concentrations of compound I-34 (10 and 50 μM). […]"}, "[7]": {"tested_on": "HK-2 proximal tubule cells", "assay": "Cisplatin-induced apoptosis (Caspases 3/7 activity) in HK-2 cells", "type": "cell-based", "conditions": "Cisplatin 50 μM; compound 10, 50 and 100 μM added 1 hr before Cisplatin injury", "excerpt": "as §2"}, "[8]": {"conditions": "18 h stimulus with 30 μg/ml LPS, compound 100 μM"}}}
{"smiles": "N#Cc1c(Cc2ccccc2)nc(SCc2cccc(-c3nnn[nH]3)c2)[nH]c1=O", "note": "[Compound I-34, 4-Benzyl-6-oxo-2-[3-(1H-tetrazol-5-yl)-benzylsulfanyl]-1,6-dihydro-pyrimidine-5 carbonitrile]", "values": [{"measurement": "Expression of anti-inflammatory genes (Arg-1, IL-10, and MRC2)", "setting": "[1]; LPS 50 ng/mL", "value": "increased"}, {"measurement": "Expression of pro-inflammatory genes (TNF-α, IL-6, and iNOS)", "setting": "[1]; LPS 50 ng/mL", "value": "reduced"}, {"measurement": "QPRT expression", "setting": "[1]; LPS", "value": "reversed LPS-induced reduction of QPRT expression"}, {"measurement": "ACMSD expression", "setting": "[2]; [8]", "value": "does not significantly affect"}, {"measurement": "Inflammatory gene expression (IL-6 and TNF-α)", "setting": "[2]; [8]", "value": "decreased"}, {"measurement": "Inflammatory gene expression (IL-6 and TNF-α), dose response", "setting": "[2]; 18 h stimulus with 30 μg/ml LPS, several concentrations", "value": "decreased inflammatory gene expression (IL-6 and TNF-α) in a dose response manner"}, {"measurement": "QPRT expression", "setting": "[2]; LPS 18 h, compound 100 μM", "value": "reversed LPS-induced reduction of QPRT expression"}, {"measurement": "Secretion of pro inflammatory cytokines (IL-1β, IL-6, TNF-α)", "setting": "[3]", "value": "decreased"}, {"measurement": "Fibrotic gene expression (Fibronectin and TIMP2)", "setting": "[4]", "value": "decreased fibrotic gene expression (Fibronectin and TIMP2) in a dose response manner"}, {"measurement": "Expression of pro-fibrotic and pro-inflammatory genes", "setting": "[5]", "value": "decreased"}, {"measurement": "Cytokine secretion (hepatic inflammation)", "setting": "[6]; day 4", "value": "reducing"}, {"measurement": "Cytokine expression (hepatic inflammation)", "setting": "[6]", "value": "reducing"}, {"measurement": "Cisplatin-induced apoptosis (Caspases 3/7 activity)", "setting": "[7]", "value": "provides protection"}]}
